Structures can show the parent of a compound that is named as a salt. Where two headings read alike, the source gives them in different places. Values belong to the compound of their own block, whether it stands above or below them.
Tests used:
[1] = target: T1, PNMT-Glut-P stationary phase (PNMT-SP) (Bos taurus, UniProt P10938); settings: Table 7, *Data obtained from reference 14; cited from earlier work
T1 sequence (P10938 1-283): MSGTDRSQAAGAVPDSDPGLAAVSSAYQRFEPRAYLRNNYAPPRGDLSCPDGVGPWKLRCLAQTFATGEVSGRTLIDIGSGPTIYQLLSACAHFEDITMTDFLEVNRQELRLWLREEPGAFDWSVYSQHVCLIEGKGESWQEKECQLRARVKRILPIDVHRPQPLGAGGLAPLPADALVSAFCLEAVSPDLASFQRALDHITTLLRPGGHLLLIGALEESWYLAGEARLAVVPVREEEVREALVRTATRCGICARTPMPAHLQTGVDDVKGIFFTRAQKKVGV

[2] = target: T1, PNMT-Glut-P stationary phase (PNMT-SP); assay: PNMT immobilized on Glut-P stationary phase (PNMT-SP), batch assay; type: biochemical, bovine
Experimental: (§1) The activity of phenylethanolamine N-methyltransferase was assayed as follows: [final concentration] To 500 μL of enzyme solution [163 μg] was added 50 μL S-adenosyl-L-methionine [20 μM] and the solution was vortexed for 1 min. The reaction was started by addition of the 50 μL substrate [1 mM]. The reaction medium was incubated for 10 min at 37° C. in a shaking bath. The resulting solution was centrifuged at 3000×g and the supernatant were directly injected onto the HPLC under the above mentioned conditions.
Immobilization onto the Glut-P Liquid Chromatographic stationary phase was accomplished in the following manner: (1) the stationary phase (10-100 mg) was washed three times with 0.1 M sodium phosphate buffer adjusted to pH 8.30 with 5M NaOH. The washing was carried out by adding 1 ml of buffer to the stationary phase, the suspension was mixed for 1 min, centrifuged at 3000×g for 10 min, and the supernatant decanted. (2) The enzyme solution [98 μg in 0.6 ml sodium phosphate buffer (0.1M, pH 8.30)] was added to the packing material, the mixture was mixed gently for 5 min and then placed in a rotator/stirrer bath for 18 h at ambient temperature. (3) At the end of 18 h, the suspension was centrifuged, the supernatant decanted and the packing material was washed three additional times with buffer. (4) The amount of enzyme immobilized on the packing material was determined by measuring the amount of residual enzyme in the supernatant using the BioRad Protein Assay. The difference in the absorbance reading before immobilization and the combined absorbances of the washings after immobilization determined the amount of enzyme bound on the packing material.

[3] = target: T2, phenylethanolamine N-methyltransferase (PNMT), non-immobilized (Bos taurus, UniProt P10938); assay: Non-immobilized PNMT activity assay, batch incubation with HPLC-fluorescence analysis; type: biochemical, bovine
T2 sequence (P10938 1-283): T1 sequence (P10938 1-283)
Experimental: A mobile phase consisting of potassium phosphate buffer (50 mM) adjusted to pH 2.0 with trifluoroacetic acid was utilized to achieve the desired chromatographic separation of the products from the substrates. The solutes were quantitated using fluorescence detection with excitation at λ=266 nm and emission at λ=380 nm. A flow rate of 0.7 ml/min and ambient temperature were used throughout the study.
as §1

[4] = target: T3, PNMT-IMER (immobilized phenylethanolamine N-methyltransferase) (Bos taurus, UniProt P10938); assay: On-line PNMT immobilized enzyme reactor (PNMT-IMER) HPLC system; type: biochemical, bovine; settings: for IC50: n = 2, read-out: IC 50 PNMT-IMER
T3 sequence (P10938 1-283): T1 sequence (P10938 1-283)
Excerpt: PNMT immobilized on the Glut-P stationary phase was packed into a lcm×10 mm guard (Regis Technologies). The guard was put into a holder and the column was placed onto the chromatographic system. The PNMT-IMER was washed with phosphate buffer [0.1M, pH 8.3]. The eluent was collected in order to determine if any of the enzyme was being washed off the column. The Biorad assay was utilized to measure the amount of non-immobilized enzyme. When the column was not in use it was washed with phosphate buffer [0.1M, pH 8.3] and stored at 4° C.
The pump on system 2 is stopped. 100 μl of a substrate/cofactor mixture is loaded into the injector (i) and the value is switched to the inject position at the same time the switching valve (SV) is switched such that the substrate/product are eluted from the PNMT-IMER and concentrated onto the analytical columns of System 2 for the specified contact time. When the specific contact time elapses the SV is switched back to the original position and the pump on system 2 is started. The unreacted substrate and product formed are separated on the coupled analytical columns.
The enzymatic activity on the PNMT-IMER was determined by quantification of the amount of product formed with a given substrate. The temperature of the PNMT-IMER unless otherwise stated was kept at 37° C. with a column heater. Stock solutions of normetanephrine were prepared in water. The substrate concentrations examined ranged from 0.15-10 mM and that of the cofactor, S-adenosyl-L-methionine, ranged from 5-100 μM.
Enzymatic activity was examined carrying out injections of a series of substrate/cofactor mixtures. The mixtures were injected onto the IMER at a flow rate of 0.2 ml/min for a contact time of 20 min. The kinetic parameters were determined by drawing Lineweaver-Burke plots utilizing Microsoft Excel. Results are expressed as mean±standard error of the mean (SEM).
The effect of known inhibitors, S-adenosylhomocysteine and methyldopa on the enzymatic activity of the PNMT-IMER was also examined. The inhibition of the PNMT-IMER was carried out using injections of a series of substrate/cofactor/inhibitor mixtures.

[5] = non-immobilized PNMT, read-out: Ki PNMT
[6] = immobilized PNMT, read-out: Ki PNMT-SP
[7] = 0.2 ml/min, contact time 20 min, 37° C., n = 2

Compound: COc1cc(C(O)CN)ccc1O (racemic) [Normetanephrine, DL-normetanephrine hydrochloride]
Km [1]: 152 µM | Vmax [1]: 0.823 µmol/mg/min | Vmax ([2]; PNMT-SP, Table 5): 0.823 µmol/mg/min

Compound: Cl.NCc1ccccc1 [Benzylamine, benzylamine hydrochloride]
concentration as low as which the enzyme is inhibited ([3]; non-immobilized PNMT): 100 µM | Ki [3, 5]: 220 ± 110 µM | inhibition of PNMT activity, immobilized PNMT compared to the non-immobilized PNMT ([2]; FIG. 8): three times higher | concentration as low as which the enzyme is inhibited ([2]; immobilized PNMT): 100 µM | Ki [2, 6]: 690 ± 100 µM

Compound: O=S(=O)(O)c1cc[c]([Hg][Cl])cc1 [p-chloromercuriphenylsulfonic acid, p-chloromercuriphenylsulfonic acid monosodium salt]
Ki [3]: 120 ± 140 µM | Ki [2]: 520 ± 190 µM

Continued, in another order:

IC50 ([3]; non-immobilized PNMT, n = 2, read-out: IC 50 PNMT): 10.4 µM | concentration as low as which the PNMT-IMER is inhibited [4]: 1 µM | IC50 [4]: 7.6 ± 0.2 µM
Compound: methyl-dopa

IC50 [3]: 40.1 µM | concentration as low as which the PNMT-IMER is inhibited [4]: 5 µM | IC50 [4]: 50.5 ± 1.5 µM
Compound: Nc1ncnc2c1ncn2[C@@H]1O[C@H](CSCC[C@H](N)C(=O)O)[C@@H](O)[C@H]1O [SAH, S-adenosyl-L-homocysteine]

Ki [3, 5]: 1.04 ± 0.49 µM | Ki [2, 6]: 4.92 ± 0.16 µM
Compound: CCN1C(=O)C=CC1=O [N-ethylmaleimide]

Km ([3]; non-immobilized PNMT): 14.2 µM | Vmax ([3]; non-immobilized PNMT): 1.249 µmol/mg/min | Km ([2]; PNMT-SP, Table 5): 10.6 µM | Vmax ([2]; PNMT-SP, Table 5): 0.654 µmol/mg/min | Km [4, 7]: 7.31 µM | Vmax [4, 7]: 0.424 µmol/mg/min
Compound: C[S+](CC[C@H](N)C(=O)O)C[C@H]1O[C@@H](n2cnc3c(N)ncnc32)[C@H](O)[C@@H]1O (stereo partly drawn) [SAM, S-adenosyl-L-methionine]
Km [1]: 10.6 µM | Vmax [1]: 0.254 µmol/mg/min

— patent publication US20040053355A1, “Modular approach to on-line synthesis, drug discovery and biochemical transformations using immobilized enzyme reactors” (priority 2000, published 2004)
